This test relates to P388 leukemia ip, CD2F1 mice, survival T/C. As to the kind of experiment: NCI In Vivo Anticancer Drug Screen. Data for tumor model P388 Leukemia (intraperitoneal) in CD2F1 (CDF1) mice. Particulars: endpoint: median survival time, higher = longer survival. A digest of the protocol: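 Mice carrying the transplanted tumor received test compound or vehicle. Survival was recorded in each group, and the value is the treated-group measurement divided by that of the vehicle-treated control group.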

[1] abbreviates: dose: 12.5 mg/kg/injection, schedule: Q01DX009 (ip), vehicle: saline with Tween-80.
The mark [2] stands for this setting: dose: 25.0 mg/kg/injection, schedule: Q01DX009 (ip), vehicle: saline with Tween-80.
Where [3] appears, read: dose: 50.0 mg/kg/injection, schedule: Q01DX009 (ip), vehicle: saline.
Where [4] appears, read: dose: 100.0 mg/kg/injection, schedule: Q01DX009 (ip), vehicle: saline.
[5] abbreviates: dose: 50.0 mg/kg/injection, schedule: Q01DX009 (ip), vehicle: saline with Tween-80.
Where [6] appears, read: dose: 50.0 mg/kg/injection, schedule: Q01DX005 (ip), vehicle: saline with Tween-80.
The mark [7] stands for this setting: dose: 100.0 mg/kg/injection, schedule: Q01DX005 (ip), vehicle: saline with Tween-80.
Setting [8] is: dose: 200.0 mg/kg/injection, schedule: Q01DX005 (ip), vehicle: saline with Tween-80.
[9] abbreviates: dose: 6.25 mg/kg/injection, schedule: Q01DX009 (ip), vehicle: saline with Tween-80.
[10] abbreviates: dose: 50.0 mg/kg/injection, schedule: Q04DX003 (ip), vehicle: Klucel (hydroxypropylcellulose) (HPC).
The mark [11] stands for this setting: dose: 100.0 mg/kg/injection, schedule: Q04DX003 (ip), vehicle: Klucel (hydroxypropylcellulose) (HPC).

SMILES strings stand for the structures. Values joined by “and” are separate entries in the source; they are usually repeats but may differ in a detail not shown here. Identical values can stand only once. Inconclusive results and toxic doses are left out.

On to `COc1cc2ccc3c[n+]4ccccc4cc3c2cc1OC`, for which the T/C (dose: 6.25 mg/kg/injection, schedule: Q01DX009 (ip), vehicle: Klucel (hydroxypropylcellulose) (HPC)) was 103 % of control and the T/C (dose: 12.5 mg/kg/injection, schedule: Q01DX009 (ip), vehicle: Klucel (hydroxypropylcellulose) (HPC)) was 108 % of control.

In the case of `CCCN1C(=O)C2C3C=CC(C2C1=O)C1C2C(=O)N(CCC)C(=O)C2C31` (stereo unspecified), the T/C reads like this: (dose: 100.0 mg/kg/injection, schedule: Q01DX001 (ip), vehicle: saline with Tween-80) 92 % of control; (dose: 200.0 mg/kg/injection, schedule: Q01DX001 (ip), vehicle: saline with Tween-80) 96 % of control; (dose: 400.0 mg/kg/injection, schedule: Q01DX001 (ip), vehicle: saline with Tween-80) 101 % of control.

As for `CC1=C(Br)C(c2ccccc2)=Nc2ccccc2N1`, the T/C runs as follows: under setting [1], 123 % of control; under setting [2], 116 % of control; under setting [3], 119 % of control; under setting [4], 110 % of control.

Take `Cc1ccc(SC(=O)N2CCN(C(=O)Sc3ccc(C)cc3)CC2)cc1`: the T/C was 93 % of control (dose: 50.0 mg/kg/injection, schedule: Q01DX009 (ip), vehicle: Klucel (hydroxypropylcellulose) (HPC)) and 89 % of control (dose: 100.0 mg/kg/injection, schedule: Q01DX009 (ip), vehicle: Klucel (hydroxypropylcellulose) (HPC)).

Regarding `O=[N+]([O-])c1nccn1CCCl`, the T/C is 95 % of control (dose: 12.5 mg/kg/injection, schedule: Q01DX009 (ip), vehicle: distilled water + Tween-80); 113 % of control (dose: 25.0 mg/kg/injection, schedule: Q01DX009 (ip), vehicle: distilled water + Tween-80); 100 % of control (dose: 50.0 mg/kg/injection, schedule: Q01DX009 (ip), vehicle: distilled water + Tween-80).

As for `O=[N+]([O-])c1cc([N+](=O)[O-])c2ccccc2c1NS(=O)(=O)c1ccc(Br)cc1`, the T/C was 103 % of control under setting [2] and 117 % of control under setting [5].

With `OCC(O)C(O)CO` (stereo unspecified), the T/C is 98 % of control under setting [6], 104 % of control under setting [7] and 104 % of control under setting [8].

For `CN=C(N)N/N=C(\C)c1ccc2c(c1)Cc1ccccc1-2`, the T/C (dose: 25.0 mg/kg/injection, schedule: Q04DX002 (ip), vehicle: saline with Tween-80) is 122 % of control.

For the compound `CC1N=C(SCC(=O)c2ccc(F)cc2)N2C(C)N=C(SCC(=O)c3ccc(F)cc3)N12` (stereo unspecified), the T/C is 111 % of control under setting [3]; 111 % of control under setting [4]; 98 % of control (dose: 200.0 mg/kg/injection, schedule: Q01DX009 (ip), vehicle: saline).

`COP(=O)(OC)C(=[N+]=[N-])c1ccccc1`: the T/C runs as follows: (dose: 6.25 mg/kg/injection, schedule: Q01DX009 (ip), vehicle: water) 98 % of control; (dose: 12.5 mg/kg/injection, schedule: Q01DX009 (ip), vehicle: water) 106 % of control; (dose: 50.0 mg/kg/injection, schedule: Q01DX009 (ip), vehicle: water) 93 % of control; (dose: 100.0 mg/kg/injection, schedule: Q01DX009 (ip), vehicle: water) 98 % of control; (dose: 200.0 mg/kg/injection, schedule: Q01DX009 (ip), vehicle: water) 90 % of control.

`CC[C@H]1CN2CCc3cc(OC)c(OC)cc3[C@@H]2C[C@@H]1C[C@@H]1c2cc(OC)c(OC)cc2CCN1N=O`: the T/C under setting [9] is 96 % of control, the T/C under setting [1] was 99 % of control, the T/C under setting [2] is 107 % of control and the T/C under setting [5] is 100 % of control.

As to `Cc1cc(C)cc([C@H](C)N=Cc2cc(Br)ccc2O)c1`, the T/C by setting is: (dose: 100.0 mg/kg/injection, schedule: Q04DX002 (ip), vehicle: saline with Tween-80) 100 % of control; (dose: 200.0 mg/kg/injection, schedule: Q04DX002 (ip), vehicle: saline with Tween-80) 100 % of control; (dose: 400.0 mg/kg/injection, schedule: Q04DX002 (ip), vehicle: saline with Tween-80) 108 % of control.

As to `CCOc1cc2c(cc1C(C)c1ccc(O)cc1)OCO2` (stereo unspecified), the T/C reads like this: (dose: 50.0 mg/kg/injection, schedule: Q01DX005 (ip), vehicle: distilled water + Tween-80) 102 % of control; (dose: 100.0 mg/kg/injection, schedule: Q01DX005 (ip), vehicle: distilled water + Tween-80) 105 % of control; (dose: 200.0 mg/kg/injection, schedule: Q01DX005 (ip), vehicle: distilled water + Tween-80) 109 % of control.

Consider `Cc1nc(C(=O)NO)c2ccccc2n1`, for which the T/C by setting is: under setting [1], 102 % of control; under setting [2], 102 % of control; under setting [5], 98 % of control and 97 % of control; (dose: 200.0 mg/kg/injection, schedule: Q01DX009 (ip), vehicle: saline with Tween-80) 103 % of control.

For the compound `CC(=O)Oc1c2ccsc2cc2sccc12`, the T/C (dose: 12.5 mg/kg/injection, schedule: Q04DX003 (ip), vehicle: Klucel (hydroxypropylcellulose) (HPC)) is 95 % of control; the T/C (dose: 25.0 mg/kg/injection, schedule: Q04DX003 (ip), vehicle: Klucel (hydroxypropylcellulose) (HPC)) is 94 % of control; the T/C under setting [10] is 94 % of control; the T/C under setting [11] was 100 % of control.

As for `COc1ccc(NC(=O)CCC(=O)CC(=O)c2ccc(C)cc2)cc1`, the T/C was 105 % of control (dose: 60.0 mg/kg/injection, schedule: Q01DX005 (ip), vehicle: saline with Tween-80); 106 % of control (dose: 120.0 mg/kg/injection, schedule: Q01DX005 (ip), vehicle: saline with Tween-80); 101 % of control (dose: 240.0 mg/kg/injection, schedule: Q01DX005 (ip), vehicle: saline with Tween-80).

On to `Cc1nc2c(nc1C)C(=O)c1cc(O)ccc1C2=O`, for which the T/C runs as follows: (dose: 50.0 mg/kg/injection, schedule: Q01DX005 (ip), vehicle: Klucel (hydroxypropylcellulose) (HPC)) 101 % of control; (dose: 100.0 mg/kg/injection, schedule: Q01DX005 (ip), vehicle: Klucel (hydroxypropylcellulose) (HPC)) 104 % of control; (dose: 200.0 mg/kg/injection, schedule: Q01DX005 (ip), vehicle: Klucel (hydroxypropylcellulose) (HPC)) 100 % of control.

Consider `Cc1[nH]c2ccc(N(C)C)cc2c(=O)c1CNCc1ccccc1`, for which the T/C was 114 % of control (dose: 1.56 mg/kg/injection, schedule: Q01DX009 (ip), vehicle: saline with Tween-80); 107 % of control (dose: 3.13 mg/kg/injection, schedule: Q01DX009 (ip), vehicle: saline with Tween-80); 103 % of control and 96 % of control under setting [9].

Regarding `CCC1=C[C@H]2CN(CCc3c([nH]c4ccccc34)[C@@](C(=O)OC)(c3cc4c(cc3OC)N(C)[C@H]3[C@@](O)(C(=O)NCCSC)[C@H](O)[C@]5(CC)C=CCN6CC[C@]43[C@@H]65)C2)C1`, the T/C (dose: 0.5 mg/kg/injection, schedule: Q01DX001 (ip), vehicle: water) is 117 % of control; the T/C (dose: 2.0 mg/kg/injection, schedule: Q01DX001 (ip), vehicle: water) is 118 % of control; the T/C (dose: 16.0 mg/kg/injection, schedule: Q01DX001 (ip), vehicle: water) is 154 % of control and 168 % of control; the T/C (dose: 32.0 mg/kg/injection, schedule: Q01DX001 (ip), vehicle: water) was 191 % of control.

With `CC1(C)N=C(N)N=C(N)N1c1ccccc1`, the T/C (dose: 25.0 mg/kg/injection, schedule: Q04DX003 (ip), vehicle: saline) is 104 % of control and the T/C (dose: 50.0 mg/kg/injection, schedule: Q04DX003 (ip), vehicle: saline) is 112 % of control.

Turning to `CN(C)S(=O)(=O)N1CCOCC1`, the T/C by setting is: under setting [10], 95 % of control; under setting [11], 101 % of control; (dose: 200.0 mg/kg/injection, schedule: Q04DX003 (ip), vehicle: Klucel (hydroxypropylcellulose) (HPC)) 93 % of control; (dose: 400.0 mg/kg/injection, schedule: Q04DX003 (ip), vehicle: Klucel (hydroxypropylcellulose) (HPC)) 110 % of control.

Take `CC(=O)NC1CCC(C2CCCCC2)CC1C1CCCCC1` (stereo unspecified): the T/C was 107 % of control under setting [6], 98 % of control under setting [7] and 102 % of control under setting [8].

`COc1cccc(/C=C/C(=O)c2ccc(Cl)cc2)c1OC`: the T/C reads like this: (dose: 100.0 mg/kg/injection, schedule: Q04DX003 (ip), vehicle: saline with Tween-80) 100 % of control; (dose: 200.0 mg/kg/injection, schedule: Q04DX003 (ip), vehicle: saline with Tween-80) 100 % of control; (dose: 400.0 mg/kg/injection, schedule: Q04DX003 (ip), vehicle: saline with Tween-80) 90 % of control.

The values are drawn from PubChem BioAssay AID330 (DTP/NCI, 2004).
